Laboratory results reported in patent US7323569B2, “7-phenylpyrazolopyridine compounds” (Eisai R&D Management Co., Ltd., priority 2002, dated 2008).
Where two headings read alike, the source gives them in different places.

Tested on: CYP3A4
Settings: human, hepatocytes, 48 h
Description: Evaluation of Drug Metabolizing Enzyme (CYP3A4) Inducibility Using Cryopreserved Human Hepatocyte
Cryopreserved hepatocytes (In Vitro Technology) were rapidly thawed while stirring at 37° C., and then ice-cooled William's Medium E (10% FBS, +PSG) was slowly added to the cells prior to centrifugation at 500 rpm for 5 minutes. After removing the supernatant, the obtained hepatocytes were diluted with ice-cooled William's Medium E to a concentration of 5×10^5 cells/mL, seeded on a 48-well collagen coated plate (BD Biosciences) at 1×10^5 cells/cm^2 and incubated for about 24 hours at 37° C., 5% CO2, after which the medium was changed with Hepato-STIM™ (BD Biosciences) (+EGF, PSG, −FBS) and culture was maintained for another 24 hours under conditions of 37° C., 5% CO2. At approximately 48 hours after the cell seeding, the test compound or rifampicin (SIGMA, positive control) in the form of a diluted solution (using Hepato-STIM™ (+EGF, PSG, −FBS)) was added, hepatocyte were incubated for about 24 hours under conditions of 37° C., 5% CO2, and the culture medium was changed with medium containing a freshly prepared dilution of the test compound or rifampicin prior to further incubation for 24 hours under the same conditions. After incubation, the cells were washed once with PBS, and the total RNA was extracted using a Qiagen RNeasy Mini kit (Qiagen). The cDNA was synthesized by reverse-transcription of extracted using TaqMan Reverse Transcription Reagents (Applied Biosystems). The reverse transcription reaction was carried out using oligo dT as primer, with treatment at 25° C. for 10 minutes followed by treatment at 48° C. for 60 minutes, after which the reverse transcriptase was inactivated by treatment at 95° C. for 10 minutes. The obtained cDNA was supplied to a PCR using a Gene Amp PCR system 9700. The obtained cDNA was quantitated using an SYBR Green PCR Core Reagents kit (Applied Biosystems), and the human CYP3A4 and GAPDH mRNA was quantitated using an ABI7700 (Applied Biosystems). The abbreviations used in the test example are explained below. • FBS: Fetal Bovine Serum • PSG: Penicillin (100 U/ml), Streptomycin (100 μg/ml), Glutamine (2 mM) • EGF: Epidermal Growth Factor • GAPDH: Glyceraldehyde-3-Phosphate Dehydrogenase
(2) Calculation of CYP3A4 Inducibility
Next, for comparison of each test run, the differences between the value of the CYP3A4 mRNA amount divided by the GAPDH mRNA amount with addition of the test compound at various concentrations and with addition of the negative control were calculated as percentages, with 100% being defined as the difference between the values of the CYP3A4 mRNA amount divided by the GAPDH mRNA amount for the positive control and negative control, to determine the inducibility of each test compound.

Row | CYP3A4 inducibility, % of Positive Control (0.03 μM) | CYP3A4 inducibility, % of Positive Control (0.1 μM) | CYP3A4 inducibility, % of Positive Control (0.3 μM) | CYP3A4 inducibility (1 μM) | CYP3A4 inducibility, % of Positive Control (1 μM) | CYP3A4 inducibility, % of Positive Control (3 μM) | CYP3A4 inducibility, % of Positive Control (10 μM) | SMILES
1 | 2% | 3% | 11% | ≤ 40% | 25% | 49% | 59% | COCc1cc(OC)c(-c2cccc3c(N(CC4CCOCC4)CC4CC4)c(SC)nn23)c(OC)c1 [Example 59, N-Cyclopropylmethyl-N-[7-[2,6-dimethoxy-4-(methoxymethyl)phenyl]-2-(methylsulfanyl)pyrazolo[1,5-a]pyridin-3-yl]-N-tetrahydro-2H-4-pyranylmethylamine]
2 | 3% | 3% | 7% | ≤ 40% | 25% | 23% | 34% | CCOCc1cc(OC)c(-c2cccc3c(N(CC4CCOCC4)CC4CC4)c(CC)nn23)c(OC)c1 [Example 3, N-Cyclopropylmethyl-N-7-[4-(ethoxymethyl)-2,6-dimethoxyphenyl]-2-ethylpyrazolo[1,5-a]pyridin-3-yl-N-tetrahydro-2H-4-pyranylmethylamine]
3 | 6% | 7% | 12% | ≤ 40% | 20% | 36% | 65% | CCc1nn2c(-c3c(OC)cc(COC)cc3OC)cccc2c1N(CC1CCOCC1)CC1CC1 [Example 1, N-Cyclopropylmethyl-N-7-[2,6-dimethoxy-4-(methoxymethyl)phenyl]-2-ethylpyrazolo[1,5-a]pyridin-3-yl-N-tetrahydro-2H-4-pyranylmethylamine]
